Laboratory results as given in patent US5474988A, “5-phenylpyrrolo-1,4-benzoxazine and 5-phenylpyrrolo-1,4-benzothiazine compounds, process and intermediates for their production and pharmaceutical compositions containing them” (Kali-Chemie Pharma GmbH, priority 1993, dated 1995).

How the values were obtained:
[1] = system: male mice; details: mouse, in vivo, po, 1440 min
Method: 2. Determination of the minimum toxic dose.
Maximum doses of 300 mg/kg of the test substance were administered orally to male mice each weighing 20-25 g. The animals were carefully observed for symptoms of toxicity for 3 hours. All symptoms and deaths were additionally recorded over a period of 24 hours after administration. Associated symptoms were likewise observed and recorded. If death or severely toxic symptoms were observed, increasingly lower doses were administered to further mice. The lowest dose which caused death or severely toxic symptoms is indicated as the minimum toxic dose in the following Table B: […]

[2] = system: P.A.F.-induced aggregation of blood platelets; assay: anti-P.A.F. action in vitro (P.A.F.-induced platelet aggregation); assay type: cell-based; details: Oryctolagus cuniculus, 10^-5 mole/liter, read-out: Anti-P.A.F. activity in vitro, % inhibition of the P.A.F.-induced aggregation of blood platelets from rabbit blood
Source text: 3. Determination of the anti-P.A.F. action in vitro.
P.A.F. (=Platelet Activating Factor=Platelet Aggregation Factor) is a phospholipid mediator which has a multiplicity of actions. The activation of blood platelet aggregation results in the induction of long-lasting bronchoconstrictions and hyperreactivity of the respiratory passages.
In this test, the effect of the test substances on platelet aggregation induced by addition of P.A.F. in a platelet suspension obtained from rabbit blood was investigated according to the method described by Mikashima et al. (Jap. J. Pharmacol. 44 (1987) 387-391).
A suspension of platelets obtained from rabbit blood was used which contains 4×10^9 platelets/ml in a modified Tyrode buffer solution (=Tyrode solution with the addition of 1.3 mM/l of CaCl2 and 2.5 g/l of gelatine) adjusted to pH 7.4. Tyrode solution is an aqueous solution containing, per liter, 136.9 mmole of NaCl, 2.68 mmole of KCl, 2.31 mmole of CaCl2, 1.0 mmole of MgCl2, 11.9 mmole of NaHCO3, 1.45 mmole of NaH2 PO4 and 5.55 mmole of glucose. The platelets were concentrated from 10 ml blood samples of three rabbits (New Zealand hybrids, body weight 3-4 kg) in each case. To accomplish this, the blood samples were treated with ethylenediaminetetraacetic acid and washed according to the method of Artley et al. (Brit. J. Haematol. 19 (1970), 7-17). A platelet-rich plasma was first separated by centrifugation (20 minutes at 400×g). The platelets were separated from the plasma by repeated centrifugation for 15 minutes at 1400×g.After the centrifugation, the blood platelets remaining in the sediment were resuspended in a Tyrode buffer solution (but without calcium). 0.4 mmole of lysine acetylsalicylate was then added, and the blood platelets were sedimented again after 15 minutes. The sediment was resuspended in the aforementioned modified Tyrode buffer solution, and the number of platelets in the suspension obtained was adjusted to the desired content.
A 40×10^-9 molar P.A.F. solution was employed as a reagent. This solution was prepared from a 1.8×10^-3 molar stock solution in chloroform. To do this, a 10 μl sample of the stock solution was evaporated to dryness and dissolved again in 180 μl of the modified Tyrode buffer solution, to which 0.25% of lipid-free bovine serum albumin had been added. 10^-5 molar working solutions were then prepared from this and stored frozen. Samples of these solutions were appropriately diluted for tests.
In order to carry out the test, 50 μl of the blood platelet suspension and 10 μl of a 40×10^-5 molar solution of the compound to be investigated were added to […] of the modified Tyrode buffer solution with stirring (1000 rpm) in an aggregation tube provided with a small magnetic stirrer. This corresponded to a final test substance concentration of 10^-5 mole/l. After a preincubation time of 90 seconds, 10 μl of the P.A.F. preparation were added. For 4-5 minutes, the aggregation occurring in the aggregation tube was measured by means of a computerized aggregometer.
The aggregation occurring in the test tubes containing only the platelet suspension is rated as 0%. The aggregation occurring in the test tubes containing platelet suspension and P.A.F. preparation, in which a P.A.F.-induced increase in platelet aggregation takes place, is rated as 100%. The aggregation still occurring after addition of the test substances is measured, and from this the inhibition of the P.A.F.-inducedincrease in aggregation which takes place is calculated in %.

[3] = system: cutaneous histamine induced anaphylactoid reactions; assay: inhibition of the anaphylactoid cutaneous reaction induced by histamine; assay type: in vivo, Sprague-Dawley rats; details: Rattus norvegicus, po, 0.5 h; 2 × 10^-5 mole/kg p.o., one hour before histamine; assessed 30 minutes after provocation; read-out: Inhibitory action against cutaneous histamine induced anaphylactoid reactions in rats, % inhibition
Method: 1. Determination of the inhibition of the anaphylactoid cutaneous reaction induced by histamine.
The inhibition of the anaphylactoid cutaneous reaction induced by histamine was determined in Sprague-Dawley rats having body weights of 150-180 g.
In order to determine the histamine-induced anaphylactoid skin reaction, 50 μl of a physiological saline solution containing 0.8 mg/ml of histamine were injected into the animals intradermally on one flank. Immediately afterward, a solution of 26.4 mg/kg of a blue dye (Evan's Blue) was administered i.v. to the animals.
The test substances were dissolved in distilled water which contains 1% by volume of dimethylformamide and 1% by volume of Tween®20 (=polyoxyethylene(20) sorbitan monolaurate). One hour before the histamine injection, each animal received 2×10^-5 mol/kg of test substance, in each case administered orally in 0.5 ml of solution. A control group received only the solvent for comparison.
The histamine-induced anaphylactoid reactions which manifested themselves by edema formation, swelling and exudation of blue dye are assessed 30 minutes after provocation by the histamine injection. This is carried out by visual determination of the extent of the exudation of blue dye at the sites of edema formation. With the aid of comparison scales, the percentage inhibition of the anaphylactoid reactions produced by the test substances is determined in comparison with the reactions of the control animals not treated with test substance.
The results obtained with compounds of the formula I by the above test method are reproduced in the following table A. The example numbers given as identifiers for the compounds of formula I refer to the subsequent preparative examples.

[4] = system: 5-lipoxygenase; assay: inhibition of 5-lipoxygenase activity in polymorphonuclear rat leucocytes (LTB4 formation); assay type: cell-based; details: 10^-5 mol/l; 22° C.
Source text: 4. In vitro determination of 5-lipoxygenase inhibition. 4a. In vitro determination of inhibition of 5-lipoxygenase activity in polymorphonuclear rat leucocytes. Arachidonic acid contained in cell membranes is released after activiation of the polymorphonuclear leucocytes (=PMN). During the course of this, under the action of the enzyme 5-lipoxygenase (=5-LO) arachidonic acid metabolites are synthesized which can be converted to leucotriene B4 (=LTB4) by LTA4 hydrolase. LTB4 is a principal metabolite of the arachidonic acid metabolism taking place on activation of the enzyme 5-LO by the inflammatory stimulus in the cell membrane. In in vitro systems, this metabolite is secreted from PMNs. […] To accomplish this, the content of LTB4 in a culture medium of rat peritoneal PMNs was determined after stimulation by calcimycin (=calcium-ionophore A23187) such as described by […] et al., Can. J. Physiol. Pharmacol. 67 (1989), 17. A cell suspension containing peritoneal PMNs of male Sprague-Dawley rats (body weight 200 to 250 g) was obtained in a known manner as follows: 6 ml of a solution containing 27.9 g/l of sodium thioglycolate were injected i.p. into the animals in order to induce the PMN invasion due to this inflammatory stimulus. After 22 hours, the animals were sacrificed by means of lethal ether anaesthesia. 20 ml of a Hank's salt solution (=Hank's Balanced Salt Solution=HBSS), but without Ca^++ and Mg^++ ions and with 0.2% by weight of sodium citrate, were then injected into the abdominal cavity. The suspension of accumulated cells was removed from the abdominal cavity and the cells were separated by centrifugation (10 minutes at 400×g). The cells were purified by repeated centrifugation in the presence of Ficoll-Paque®, (=metrizoic acid preparation, […], manufacturer Pharmacia), then washed twice with HBSS containing Ca^++ and Mg^++ ions and resuspended in HBSS containing Ca^ ++ and Mg^++ ions and buffered with 10 mM HEPES (=hydroxyethylpiperazinoethanesulfonic acid). In order to carry out the tests, samples of 0.7 ml of the PMN suspension (=0.5×10^6 cells) in each case were incubated for 15 minutes at 22° C. in plastic tubes containing 10 μM of the test substance in dimethylformamide or, as a control experiment, only containing dimethylformamide. The LTB4 synthesis was initiated in the samples by addition of calcimycin (final concentration 5 μm), and the samples were incubated for 10 minutes at 22° C. Only solvent was added to blank control samples. After 10 minutes, the reaction was terminated by addition of 0.3 ml of cold methanol. The samples were kept for 1 hour at 4° C. and then centrifuged (5 minutes at 10,000×g). The supernatant liquid was investigated to determine its LTB4 content by means of reverse phase high-pressure liquid chromatography (=reverse phase HPLC). […] The LTB4 was identified by comparison with authentic standard solutions eluting at the same time and determined at a wavelength of 270 nm. The LTB4 contents are determined from comparison with calibrated standard solutions, and from this the inhibitory activity of the test substances was calculated in % inhibition of the LTB4 synthesis in comparison with the control samples containing no test substance.

[5] = biological target: T1, 5-lipoxygenase (Homo sapiens, UniProt P09917); assay: 5-lipoxygenase inhibition in human blood (LTB4 formation); assay type: cell-based; details: 0.5 h; 10^-5 mole/liter; human whole blood, 37° C.; read-out: In vitro % inhibitory activity on LTB4 formation in human blood stimulated by calcimycin
T1 construct: the 5-LO activity in human whole blood; from tissue; host or cells: heparinized human whole blood
T1 sequence (P09917 1-674): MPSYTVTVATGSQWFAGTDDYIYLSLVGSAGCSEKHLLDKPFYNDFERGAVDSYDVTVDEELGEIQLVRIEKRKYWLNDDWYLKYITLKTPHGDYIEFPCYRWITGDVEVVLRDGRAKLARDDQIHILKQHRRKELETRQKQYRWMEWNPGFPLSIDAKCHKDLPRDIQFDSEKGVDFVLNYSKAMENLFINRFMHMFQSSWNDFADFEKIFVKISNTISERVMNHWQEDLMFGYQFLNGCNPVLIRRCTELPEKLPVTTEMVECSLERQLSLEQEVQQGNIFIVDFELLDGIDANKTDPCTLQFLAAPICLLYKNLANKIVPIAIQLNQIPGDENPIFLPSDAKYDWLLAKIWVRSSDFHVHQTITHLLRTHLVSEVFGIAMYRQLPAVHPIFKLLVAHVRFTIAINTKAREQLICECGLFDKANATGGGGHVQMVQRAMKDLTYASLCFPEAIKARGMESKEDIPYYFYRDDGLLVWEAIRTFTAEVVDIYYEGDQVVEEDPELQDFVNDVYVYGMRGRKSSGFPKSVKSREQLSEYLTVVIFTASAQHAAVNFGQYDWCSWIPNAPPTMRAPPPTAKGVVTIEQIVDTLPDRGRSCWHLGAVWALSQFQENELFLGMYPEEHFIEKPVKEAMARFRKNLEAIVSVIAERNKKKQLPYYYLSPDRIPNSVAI
Method: 4c. In vitro determination of 5-lipoxygenase inhibition in human blood.
The inhibitory activity of the test substances on the 5-LO activity in human whole blood taking place after stimulation by calcimycin is investigated according to the method described by P. Gresele et al. (Biochem. Biophys. Commun. 137 (1986), 334).
For carrying out the test, human blood is collected in sterile 50 ml test tubes which contain 10 units of heparin/ml of blood and incubated for 5-10 minutes at 37° C. Amounts of test substance, dissolved in 10 μl of dimethylformamide, are added to 2 ml samples of this blood such that a final concentration of test substance of 10 μmol/l is achieved in the samples. Only 10 μl of the solvent were added to control samples. The samples were then incubated for 10 minutes at 37° C. In order to stimulate LTB4 synthesis, an amount of calcimycin, dissolved in 200 μl of plasma, was added to the samples such that a calcimycin concentration of 60 μmol/l was achieved, and the samples were incubated for a further 30 minutes at 37° C. The reaction was then terminated by addition of 200 μl of an ethylene glycol tetraacetate solution (corresponding to an ethylene glycol acetate concentration in the sample of 100 mmol/l). The samples are kept in an ice-bath for 10 minutes and then centrifuged (5 minutes at 1000×g). The supernantant liquids, which contain the LTB4 formed during the reaction time, are each separated and, for precipitation of the proteins contained therein, mixed with 3 ml of acetone and kept for 45 minutes at 4° C. Then the samples are centrifuged again (5 minutes at 1500×g), the supernatant liquids are separated, and the content of LTB4 therein is determined in a known manner by means of an enzyme immunoassay (=EIA). From the measured LTB4 values, the inhibitory activity of the test substances in human whole blood was calculated in % inhibition of LTB4 synthesis in comparison to the control samples containing no test substance.

COc1ccc(-c2c(C)c3cccc4c3n2CC(CN2CCN(c3cc(C)ccn3)CC2)O4)cc1 (centres unmarked) [Example 5, 2,3-Dihydro-5-(4-methoxyphenyl)-6-methyl-2-[4-(4-methylpyridin-2-yl)piperazin-1-ylmethyl]pyrrolo[1,2,3-de]-1,4-benzoxazine]
Minimum toxic dose [1]: > 300 mg/kg | inhibition at 10 µM [2]: 100%

Cc1c(-c2ccc(O)cc2)n2c3c(cccc13)OC(CCN1CCN(c3ccccn3)CC1)C2 (centres unmarked) [Example 30]
inhibition in vivo at 20 µmol/kg [3]: 47% | inhibition at 10 µM [2]: 69% | In vitro inhibitory activity on LTB4 formation in rat PMNs stimulated by calcium ionophore A23187 [4]: 100%

Cc1ccc(N2CCN(CCC3Cn4c(-c5ccc(O)cc5)c(C)c5cccc(c54)O3)CC2)nc1 (centres unmarked) [Example 31]
inhibition in vivo at 20 µmol/kg [3]: 58% | inhibition at 10 µM [2]: 52% | In vitro inhibitory activity on LTB4 formation in rat PMNs stimulated by calcium ionophore A23187 [4]: 81%

Cc1cccnc1N1CCN(CCC2Cn3c(-c4ccc(O)cc4)c(C)c4cccc(c43)O2)CC1 (centres unmarked) [Example 32]
inhibition in vivo at 20 µmol/kg [3]: 57% | inhibition at 10 µM [2]: 79% | In vitro inhibitory activity on LTB4 formation in rat PMNs stimulated by calcium ionophore A23187 [4]: 98%

Cc1cccc(N2CCN(CCC3Cn4c(-c5ccc(O)cc5)c(C)c5cccc(c54)O3)CC2)n1 (centres unmarked) [Example 33]
inhibition in vivo at 20 µmol/kg [3]: 39% | inhibition at 10 µM [2]: 43% | In vitro inhibitory activity on LTB4 formation in rat PMNs stimulated by calcium ionophore A23187 [4]: 90%

Cc1cccnc1N1CCN(CCCC2Cn3c(-c4ccc(O)cc4)c(C)c4cccc(c43)O2)CC1 (centres unmarked) [Example 41]
inhibition in vivo at 20 µmol/kg [3]: 60% | In vitro inhibitory activity on LTB4 formation in rat PMNs stimulated by calcium ionophore A23187 [4]: 84% | inhibition at 10 µM [5]: 100%
